# Measurements published in patent US20240398771A1, “TREATMENT OF SCLERODERMA AND RAYNAUD'S SYNDROME” (Aisa Pharma, Inc., priority 2023, published 2024).
# How the values were obtained:
# Format in all cases: in vivo, human
# [1] = test system: participants with SSc-RP; experiment: Average severity (0-10) of weekly RP attacks, all attacks; settings: excluding outliers, ITT Part A
# Text: (§1) The relevant metrics measured by this tool daily are: • Study medication • SSc-RP symptoms (Reporting an attack including duration of attack) • Severity of the attack considering all symptoms of the attack e.g. tingling, numbness, pain, color changes (VAS 0-10 cm scale) • Participant's location at the time of the attack (inside home/outside home) • Selecting symptoms experienced during the attack (tingling, numbness, pain, color changes, other) • Pain rating during the attack (11-point Likert scale) • The RCS based on how much difficulty participants had with Raynaud's today, how many attacks the participant had, and how long they lasted. Participants will also be asked to consider how much pain, numbness, or other symptoms the Raynaud's caused in fingers (including painful sores), and how much the Raynaud's alone affected the use of hands today (VAS 0-10 cm scale).
# The absolute change in average severity of weekly RP attacks (VAS 0-10 cm scale) from baseline to the end of each Dosing Period was and will be a secondary outcome variable. The sponsor-developed participant-informed diary will be used to record data. Average severity of weekly RP attacks is defined as the total severity scores of RP attacks divided by total number of RP attacks within the last 7 days of each dosing period. Total severity scores of RP attacks during the last 7 days of screening period divided by the total number of RP attacks will be used as baseline for the analysis of all periods. The variable will be calculated similar to frequency data as before.
# [2] = test system: participants with SSc-RP; experiment: Frequency of weekly RP attacks, all attacks (patient diary; primary endpoint); settings: for Weekly RP Attacks (All Attacks), Max / Weekly RP Attacks (All Attacks), Min / Weekly RP Attacks (All Attacks), Q1 / Weekly RP Attacks (All Attacks), Q3: last 7 days of dosing period
# Protocol: Part A—Double-blind, Placebo-controlled, Parallel-group, Dose selection, will assess the safety and efficacy of two doses of cilnidipine (10 mg and 20 mg), alone and in combination with tadalafil. A total of 36 participants will be randomized to one of six pre-specified treatment arms. See Example 3 for data obtained in this phase of the study thus far, on 11 participants.
# Please refer to FIG. 1 for treatment arms in Part A of the study. Dosing lasted or will last for 12 (±2) days in which participants self-administered or will self-administer daily doses of assigned treatment in the morning. Each participant took or will take one capsule and one tablet to blind the active therapy being received.
# as §1
# Percent change from baseline evaluation for frequency of weekly RP attacks were or will be used as the primary efficacy variable. The sponsor-developed participant-informed diary will be used to record data. Frequency of weekly RP attacks is defined as the total number of RP attacks divided by the number of days with available diary data within the last 7 days of each dosing period then multiplied by 7. Total number of RP attacks during the last 7 days of screening period divided by the number of days with available data then multiplied by 7 will be used as baseline for the analysis of all periods.
# Percentage change={(weekly RP attacks for the last 7 days of each dosing period−Baseline weekly RP attacks)/Baseline weekly RP attacks}*100%.
# Absolute change=weekly RP attacks for the last 7 days of each dosing period−Baseline weekly RP attacks
# Percent change from baseline evaluation for frequency of weekly RP attacks was and will be the primary efficacy endpoint. Frequency of weekly RP attacks is defined as the total number of RP attacks divided by the number of days with available diary data within the last 7 days of each dosing period then multiplied by 7. Total number of RP attacks during the last 7 days of screening period divided by the number of days with available data then multiplied by 7 will be used as baseline for the analysis of all periods.
# The following data was actually obtained in accordance with the protocol and plan delineated in Examples 1 and 2. The accompanying data involved 11 patients out of the planned 76 patient study. The study was done in patients with scleroderma (systemic sclerosis) who had relatively frequent Raynaud symptoms as they needed to average at least one attack per day during a screening period of up to two weeks. In this first phase of this double-blind placebo-controlled, prospective randomized study, patients were treated in parallel and after meeting study criteria were randomized to receive either placebo, cilnidipine 10 mg daily, cilnidipine 20 mg daily, tadalafil 5 mg daily, cilnidipine 10 mg plus 5 mg of tadalafil, or cilnidipine 20 mg plus 5 mg of tadalafil.
# Results: Patients in the study were administered the Scleroderma Health Assessment Questionnaire (SHAQ) at the time of study entry and during clinic visits following the treatment period. […]
# [3] = test system: participants with SSc-RP; experiment: SHAQ Visual Analog Scale - Raynaud's; parameters: Visual Analog Scale-Raynaud's, Baseline, Mean / Visual Analog Scale-Raynaud's, Baseline, Median / Visual Analog Scale-Raynaud's, In Clinic Visit (Day 12), Mean / Visual Analog Scale-Raynaud's, In Clinic Visit (Day 12), Median: scale not given here; settings: Modified ITT, Part A
# Text: The SHAQ includes a Raynaud's VAS, which will be reported at screening and each in-clinic visit. The absolute change in Raynaud-VAS, assessed by the participants response to the SHAQ question ‘In the past 7 days, how much have your Raynaud's interfered with your daily activities?’ at baseline and the end of each dosing period will be calculated similar to frequency data as before. […]
# [4] = Cilnidipine 10 mg, baseline RCS subgroup 1 of 2
# [5] = Cilnidipine 20 mg, baseline RCS subgroup 1 of 2
# [6] = Pooled Cilnidipine 10 mg and Cilnidipine 10 mg + Tadalafil 5 mg, baseline RCS subgroup 1 of 2
# [7] = Pooled Cilnidipine 10 mg and Cilnidipine 10 mg + Tadalafil 5 mg, baseline RCS subgroup 2 of 2
# [8] = Pooled Cilnidipine 20 mg and Cilnidipine 20 mg + Tadalafil 5 mg, baseline RCS subgroup 1 of 2
# [9] = Pooled Cilnidipine 20 mg and Cilnidipine 20 mg + Tadalafil 5 mg, baseline RCS subgroup 2 of 2
# [10] = Pooled Cilnidipine, baseline RCS subgroup 1 of 2
# [11] = Table A-5, ITT Part A, listed as Cilnidipine 10 mg
# [12] = Table A-5, ITT Part A, listed as Cilnidipine 20 mg
# [13] = Table A-5, ITT Part A, listed as Pooled Cilnidipine
# [14] = Table A-5, ITT Part A, last 7 days of dosing vs last 7 days of screening
# [15] = Table A-5, ITT Part A, last 7 days of dosing vs last 7 days of screening, listed as Cilnidipine 10 mg
# [16] = Table A-5, ITT Part A, last 7 days of dosing vs last 7 days of screening, listed as Cilnidipine 20 mg
# [17] = Tadalafil 5 mg, baseline RCS subgroup 2 of 2
structure (smiles),measurement,setting,value
"COCCOC(=O)C1=C(C)NC(C)=C(C(=O)OC/C=C/c2ccccc2)C1c1cccc([N+](=O)[O-])c1 (stereo not drawn) [Cilnidipine, 1,4-dihydro-2,6-dimethyl,4-(3-nitrophenyl)-3,5-pyridinedicarboxylic acid 2-methoxyethyl (2 E)-3-phenyl-2-propenyl ester]","Average Severity of Weekly RP Attacks (All Attacks): Baseline, Mean",[1]; [4],3.03
same,"Average Severity of Weekly RP Attacks (All Attacks): Baseline, Median",[1]; [4],3.03
same,"Average Severity of Weekly RP Attacks (All Attacks): Average Severity, Mean",[1]; [5],2.30
same,"Average Severity of Weekly RP Attacks (All Attacks): Average Severity, Median",[1]; [5],2.30
same,"Average Severity of Weekly RP Attacks (All Attacks): Baseline, Mean",[1]; [5],3.37
same,"Average Severity of Weekly RP Attacks (All Attacks): Baseline, Median",[1]; [5],3.37
same,"Average Severity of Weekly RP Attacks (All Attacks): Average Severity, Mean",[1]; [6],2.97
same,"Average Severity of Weekly RP Attacks (All Attacks): Average Severity, Median",[1]; [6],2.97
same,"Average Severity of Weekly RP Attacks (All Attacks): Baseline, Mean",[1]; [6],4.33
same,"Average Severity of Weekly RP Attacks (All Attacks): Baseline, Median",[1]; [6],4.33
same,"Average Severity of Weekly RP Attacks (All Attacks): Average Severity, Mean",[1]; [7],4.90
same,"Average Severity of Weekly RP Attacks (All Attacks): Average Severity, Median",[1]; [7],4.90
same,"Average Severity of Weekly RP Attacks (All Attacks): Baseline, Mean",[1]; [7],6.22
same,"Average Severity of Weekly RP Attacks (All Attacks): Baseline, Median",[1]; [7],6.22
same,"Average Severity of Weekly RP Attacks (All Attacks): Average Severity, Mean",[1]; [8],2.78
same,"Average Severity of Weekly RP Attacks (All Attacks): Average Severity, Median",[1]; [8],2.40
same,"Average Severity of Weekly RP Attacks (All Attacks): Baseline, Median",[1]; [8],4.12
same,"Average Severity of Weekly RP Attacks (All Attacks): Baseline, Mean",[1]; [9],6.59
same,"Average Severity of Weekly RP Attacks (All Attacks): Baseline, Median",[1]; [9],6.59
same,"Average Severity of Weekly RP Attacks (All Attacks): Average Severity, Median",[1]; [10],2.40
same,"Average Severity of Weekly RP Attacks (All Attacks): Baseline, Mean",[1]; [10],3.26
same,"Average Severity of Weekly RP Attacks (All Attacks): Baseline, Median",[1]; [10],3.03
same,Efficacy Seen: overall response,[2]; 20 mg dose group,shows best overall
same,effect on Raynaud's endpoints (DSMB review),"[2]; Example 4, Part A, both doses (10 and 20 mg)",effective at reducing Raynaud's endpoints
same,"Weekly RP Attacks (All Attacks) Percent Change from Baseline, Median","[2]; Pooled Cilnidipine 20 mg and Cilnidipine 20 mg + Tadalafil 5 mg, excluding outliers, baseline RCS subgroup not named, upper half of table, ITT Part A",−45.00%
same,"Weekly RP Attacks (All Attacks), Median","[2]; Pooled Cilnidipine, excluding outliers, baseline RCS subgroup not named, upper half of table, ITT Part A",11.00
same,"Weekly RP Attacks (All Attacks), Max",[2]; [11],23.0
same,"Weekly RP Attacks (All Attacks), Min",[2]; [11],"23.0,"
same,"Weekly RP Attacks (All Attacks), Q1",[2]; [11],"23.00,"
same,"Weekly RP Attacks (All Attacks), Q3",[2]; [11],23.00
same,"Weekly RP Attacks (All Attacks), Max",[2]; [12],11.0
same,"Weekly RP Attacks (All Attacks), Min",[2]; [12],"5.0,"
same,"Weekly RP Attacks (All Attacks), Q1",[2]; [12],"5.00,"
same,"Weekly RP Attacks (All Attacks), Q3",[2]; [12],11.00
same,"Weekly RP Attacks (All Attacks), Max",[2]; [13],23.0
same,"Weekly RP Attacks (All Attacks), Min",[2]; [13],"5.0,"
same,"Weekly RP Attacks (All Attacks), Q1",[2]; [13],"5.00,"
same,"Weekly RP Attacks (All Attacks), Q3",[2]; [13],23.00
same,"Weekly RP Attacks (All Attacks) Change from Baseline, Min",[2]; [14],"−9.0,"
same,"Weekly RP Attacks (All Attacks) Change from Baseline, Q1",[2]; [14],"−9.00,"
same,"Weekly RP Attacks (All Attacks) Change from Baseline, Max",[2]; [15],−9.0
same,"Weekly RP Attacks (All Attacks) Change from Baseline, Q3",[2]; [15],−9.00
same,"Weekly RP Attacks (All Attacks) Change from Baseline, Max",[2]; [16],−4.3
same,"Weekly RP Attacks (All Attacks) Percent Change from Baseline, Max",[2]; [16],−45.0%
same,"Weekly RP Attacks (All Attacks) Percent Change from Baseline, Q3",[2]; [16],−45.00%
same,"Weekly RP Attacks (All Attacks) Change from Baseline, Max","[2]; Table A-5, ITT Part A, last 7 days of dosing vs last 7 days of screening, listed as Pooled Cilnidipine",−4.3
same,"Visual Analog Scale-Raynaud's, Baseline, Mean",[3]; Cilnidipine 10 mg,1.600
same,"Visual Analog Scale-Raynaud's, Baseline, Median",[3]; Cilnidipine 10 mg,1.000
same,"Visual Analog Scale-Raynaud's, Change from Baseline, Median",[3]; Cilnidipine 10 mg,0.350
same,"Visual Analog Scale-Raynaud's, In Clinic Visit (Day 12), Median",[3]; Cilnidipine 10 mg,1.700
same,"Visual Analog Scale-Raynaud's, Baseline, Mean",[3]; Cilnidipine 20 mg,2.300
same,"Visual Analog Scale-Raynaud's, Baseline, Median",[3]; Cilnidipine 20 mg,2.500
same,"Visual Analog Scale-Raynaud's, Change from Baseline, Median",[3]; Cilnidipine 20 mg,−1.100
same,"Visual Analog Scale-Raynaud's, In Clinic Visit (Day 12), Median",[3]; Cilnidipine 20 mg,1.100
same,"Visual Analog Scale-Raynaud's, Percent Change from Baseline, Median",[3]; Cilnidipine 20 mg,−44.00%
CN1CC(=O)N2[C@H](c3ccc4c(c3)OCO4)c3[nH]c4ccccc4c3C[C@@H]2C1=O [Tadalafil],"Average Severity of Weekly RP Attacks (All Attacks): Average Severity, Mean",[1]; [17],4.56
same,"Average Severity of Weekly RP Attacks (All Attacks): Average Severity, Median",[1]; [17],4.56
same,"Average Severity of Weekly RP Attacks (All Attacks): Baseline, Mean",[1]; [17],5.75
same,"Average Severity of Weekly RP Attacks (All Attacks): Baseline, Median",[1]; [17],5.75
same,"Weekly RP Attacks (All Attacks), Max","[2]; Table A-5, ITT Part A",19.0
same,"Weekly RP Attacks (All Attacks), Min","[2]; Table A-5, ITT Part A","7.0,"
same,"Weekly RP Attacks (All Attacks), Q1","[2]; Table A-5, ITT Part A","7.00,"
same,"Weekly RP Attacks (All Attacks), Q3","[2]; Table A-5, ITT Part A",19.00
same,"Weekly RP Attacks (All Attacks) Change from Baseline, Max",[2]; [14],6.0
same,"Weekly RP Attacks (All Attacks) Change from Baseline, Min",[2]; [14],"0.0,"
same,"Weekly RP Attacks (All Attacks) Change from Baseline, Q1",[2]; [14],"0.00,"
same,"Weekly RP Attacks (All Attacks) Change from Baseline, Q3",[2]; [14],6.00
same,"Weekly RP Attacks (All Attacks) Percent Change from Baseline, Min",[2]; [14],"0.0, %"
same,"Weekly RP Attacks (All Attacks) Percent Change from Baseline, Q1",[2]; [14],"0.00, %"
same,"Visual Analog Scale-Raynaud's, Baseline, Median",[3]; Tadalafil 5 mg,0.500
same,"Visual Analog Scale-Raynaud's, Change from Baseline, Median",[3]; Tadalafil 5 mg,−0.150
same,"Visual Analog Scale-Raynaud's, In Clinic Visit (Day 12), Mean",[3]; Tadalafil 5 mg,1.500
same,"Visual Analog Scale-Raynaud's, In Clinic Visit (Day 12), Median",[3]; Tadalafil 5 mg,0.400
same,"Visual Analog Scale-Raynaud's, Percent Change from Baseline, Mean",[3]; Tadalafil 5 mg,−20.78%
same,"Visual Analog Scale-Raynaud's, Percent Change from Baseline, Median",[3]; Tadalafil 5 mg,−37.35%
